12 molecules from US20190119213A1, “OXO-PYRIDINE-DERIVATIVES AS FACTOR XIA INHIBITORS FOR THE TREATMENT OF THROMBOSIS” (BAYER PHARMA AKTIENGESELLSCHAFT, priority 2015, published 2019) can be followed below.

For experiment [1], the target named is T1, human factor XIa (Homo sapiens, UniProt P03951).
T1 construct: purchased Kordia
As to the kind of experiment: Measurement of FXIa inhibition (fluorogenic peptide substrate). In kind it is biochemical. Conditions: factor XIa from Kordia 0.45 nM; substrate Boc-Glu(OBzl)-Ala-Arg-AMC; 30 min at 22° C. How it is done:
The factor XIa inhibition of the inventive substances is determined using a biochemical test system which utilizes the reaction of a peptidic factor XIa substrate to determine the enzymatic activity of human factor XIa. Here, factor XIa cleaves from the peptic factor XIa substrate the C-terminal aminomethylcoumarin (AMC), the fluorescence of which is measured. The determinations are carried out in microtitre plates.
Test substances are dissolved in dimethyl sulphoxide and serially diluted in dimethyl sulphoxide (3000 μM to 0.0078 μM; resulting final concentrations in the test: 50 μM to 0.00013 μM). In each case 1 μl of the diluted substance solutions is placed into the wells of white microtitre plates from Greiner (384 wells). 20 μl of assay buffer (50 mM of Tris/HCl pH 7.4; 100 mM of sodium chloride; 5 mM of calcium chloride; 0.1% of bovine serum albumin) and 20 μl of factor XIa from Kordia (0.45 nM in assay buffer) are then added successively. After 15 min of incubation, the enzyme reaction is started by addition of 20 μl of the factor XIa substrate Boc-Glu(OBzl)-Ala-Arg-AMC dissolved in assay buffer (10 μM in assay buffer) from Bachem, the mixture is incubated at room temperature (22° C.) for 30 min and fluorescence is then measured (excitation: 360 nm, emission: 460 nm). The measured emissions of the test batches with test substance are compared to those of control batches without test substance (only dimethyl sulphoxide instead of test substance in dimethyl sulphoxide), and IC50 values are calculated from the concentration/activity relationships.

The target in experiment [2] is T2, human plasma kallikrein (Homo sapiens, UniProt P03952).
T2 construct: purchased Kordia
T2 sequence (P03952 391-638 limits assumed): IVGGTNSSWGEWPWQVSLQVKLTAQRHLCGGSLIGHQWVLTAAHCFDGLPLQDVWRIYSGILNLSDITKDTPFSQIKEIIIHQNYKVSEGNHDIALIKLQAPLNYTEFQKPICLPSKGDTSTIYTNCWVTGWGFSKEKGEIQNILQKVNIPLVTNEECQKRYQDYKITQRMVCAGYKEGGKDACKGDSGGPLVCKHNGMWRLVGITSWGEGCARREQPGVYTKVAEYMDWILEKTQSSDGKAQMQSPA
T2 sequence (P03952 20-390 partner limits assumed): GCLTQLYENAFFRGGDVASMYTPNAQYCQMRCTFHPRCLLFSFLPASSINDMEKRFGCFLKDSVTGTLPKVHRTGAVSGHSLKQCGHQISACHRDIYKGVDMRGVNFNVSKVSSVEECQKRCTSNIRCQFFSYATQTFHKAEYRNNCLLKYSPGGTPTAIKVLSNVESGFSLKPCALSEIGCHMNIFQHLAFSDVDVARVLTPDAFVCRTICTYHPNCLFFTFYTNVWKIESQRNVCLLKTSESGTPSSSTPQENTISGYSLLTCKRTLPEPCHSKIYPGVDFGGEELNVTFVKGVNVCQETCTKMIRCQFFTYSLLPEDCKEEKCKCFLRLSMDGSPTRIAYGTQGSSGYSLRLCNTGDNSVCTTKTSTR
As to the kind of experiment: Determination of the plasma kallikrein activity (fluorogenic peptide substrate). The format is biochemical. Conditions: plasma kallikrein from Kordia 0.6 nM; substrate H-Pro-Phe-Arg-AMC; 30 min at 22° C. As for the experimental part:
To determine the plasma kallikrein inhibition of the substances according to the invention, a biochemical test system is used which utilizes the reaction of a peptidic plasma kallikrein substrate to determine the enzymatic activity of human plasma kallikrein. Here, plasma kallikrein cleaves from the peptic plasma kallikrein substrate the C-terminal aminomethylcoumarin (AMC), the fluorescence of which is measured. The determinations are carried out in microtitre plates.
Test substances are dissolved in dimethyl sulphoxide and serially diluted in dimethyl sulphoxide (3000 μM to 0.0078 μM; resulting final concentrations in the test: 50 μM to […] each case 1 μl of the diluted substance solutions is placed into the wells of white microtitre plates from Greiner (384 wells). 20 μl of assay buffer (50 mM Tris/HCl pH 7.4; 100 mM sodium chloride solution; 5 mM of calcium chloride solution; 0.1% of bovine serum albumin) and 20 μl of plasma kallikrein from Kordia (0.6 nM in assay buffer) are then added successively. After 15 min of incubation, the enzyme reaction is started by addition of 20 μl of the substrate H-Pro-Phe-Arg-AMC dissolved in assay buffer (10 μM in assay buffer) from Bachem, the mixture is incubated at room temperature (22° C.) for 30 min and fluorescence is then measured (excitation: 360 nm, emission: 460 nm). The measured emissions of the test batches with test substance are compared to those of control batches without test substance (only dimethyl sulphoxide instead of test substance in dimethyl sulphoxide), and IC50 values are calculated from the concentration/activity relationships.

T1 sequence (P03951 388-625 limits assumed): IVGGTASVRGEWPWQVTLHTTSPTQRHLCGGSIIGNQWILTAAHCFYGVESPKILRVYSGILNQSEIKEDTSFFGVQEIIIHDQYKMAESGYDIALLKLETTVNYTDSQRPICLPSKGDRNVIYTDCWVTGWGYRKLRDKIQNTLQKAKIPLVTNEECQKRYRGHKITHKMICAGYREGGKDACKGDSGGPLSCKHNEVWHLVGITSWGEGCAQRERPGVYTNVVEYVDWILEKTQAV
T1 sequence (P03951 19-387 partner limits assumed): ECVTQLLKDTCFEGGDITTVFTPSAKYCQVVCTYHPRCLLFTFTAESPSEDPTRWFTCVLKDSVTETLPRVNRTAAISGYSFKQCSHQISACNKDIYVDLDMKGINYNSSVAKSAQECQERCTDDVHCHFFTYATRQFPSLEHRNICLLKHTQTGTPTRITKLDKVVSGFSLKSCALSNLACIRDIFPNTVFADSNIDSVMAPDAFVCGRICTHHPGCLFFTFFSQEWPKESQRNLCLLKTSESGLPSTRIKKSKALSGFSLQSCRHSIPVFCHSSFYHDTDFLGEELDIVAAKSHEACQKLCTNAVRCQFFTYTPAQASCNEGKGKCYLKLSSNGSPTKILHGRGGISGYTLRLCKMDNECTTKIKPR

For the molecule `COc1cn([C@@H](CCOC2(C)CCC2)C(=O)Nc2ccc(C(=O)O)cc2)c(=O)cc1-c1cc(Cl)ccc1OC(F)F` (single isomer, unassigned; enantiomer 2) [Example 12], the results for the IC50 in experiment [1] and in experiment [2] were 1.5 nM and 27 nM, respectively.
For `COc1cn(C(CCOC(C)(C)C)C(=O)Nc2ccc(C(=O)O)cc2)c(=O)cc1-c1cc(Cl)ccc1OC(F)F` (racemic) [Example 7, 4-[(4-tert-Butoxy-2-{4-[5-chloro-2-(difluoromethoxy)phenyl]-5-methoxy-2-oxopyridin-1(2H)-yl}butanoyl)amino]benzoic acid (racemate)], the IC50 in experiment [1] was found to be 2.9 nM; in experiment [2], 38 nM.
In the case of `COc1cn(C(CCOC2(C)CCC2)C(=O)Nc2ccc(C(=O)O)cc2)c(=O)cc1-c1cc(Cl)ccc1OC(F)F` (racemic) [Example 11, 4-[(2-{4-[5-Chloro-2-(difluoromethoxy)phenyl]-5-methoxy-2-oxopyridin-1(2H)-yl}-4-[(1-methylcyclobutyl)oxy]butanoyl)amino]benzoic acid (racemate)], the results for the half-inhibitory concentration (IC50) in experiment [1] and in experiment [2] were 2.2 nM and 45 nM, respectively.
The like results for `COc1cn(C(CCOC2CCC2)C(=O)Nc2ccc(C(=O)O)cc2)c(=O)cc1-c1cc(Cl)ccc1C#N` (racemic) [Example 3, 4-({2-[4-(5-Chloro-2-cyanophenyl)-5-methoxy-2-oxopyridin-1(2H)-yl]-4-(cyclobutyloxy)butanoyl}amino)benzoic acid (racemate)] were, in that order, 0.6 nM and 2.6 nM.
The like results for `COc1cn([C@@H](CCOC(C)C)C(=O)Nc2ccc(C(=O)O)cc2)c(=O)cc1-c1cc(Cl)ccc1C#N` (single isomer, unassigned; enantiomer 2) [Example 2] were, in that order, 0.9 nM and 4.8 nM.
For `COc1cn([C@@H](CCOC2(C)CCC2)C(=O)Nc2ccc(C(=O)O)cc2)c(=O)cc1-c1cc(Cl)ccc1C#N` (single isomer, unassigned; enantiomer 2) [Example 10], the results for the IC50 in experiment [1] and in experiment [2] were 0.4 nM and 2.4 nM, respectively.
In the case of `COc1cn([C@@H](CCOC2CCC2)C(=O)Nc2ccc(C(=O)O)cc2)c(=O)cc1-c1cc(Cl)ccc1C#N` (single isomer, unassigned; enantiomer 2) [Example 4], the IC50 worked out at 0.4 nM in experiment [1] and 1.4 nM in experiment [2].
The like results for `COc1cn(C(CCOC(C)(C)C)C(=O)Nc2ccc(C(=O)O)cc2)c(=O)cc1-c1cc(Cl)ccc1C#N` (racemic) [Example 5, 4-({4-tert-Butoxy-2-[4-(5-chloro-2-cyanophenyl)-5-methoxy-2-oxopyridin-1(2H)-yl]butanoyl}amino)benzoic acid (racemate)] were, in that order, 0.7 nM and 3.9 nM.
Take `COc1cn([C@@H](CCOC(C)(C)C)C(=O)Nc2ccc(C(=O)O)cc2)c(=O)cc1-c1cc(Cl)ccc1C#N` (single isomer, unassigned; enantiomer 2) [Example 6]: the results for the IC50 in experiment [1] and in experiment [2] were 0.3 nM and 2.2 nM, respectively.
`COc1cn(C(CCOC2(C)CCC2)C(=O)Nc2ccc(C(=O)O)cc2)c(=O)cc1-c1cc(Cl)ccc1C#N` (racemic) [Example 9, 4-({2-[4-(5-Chloro-2-cyanophenyl)-5-methoxy-2-oxopyridin-1(2H)-yl]-4-[(1-methylcyclobutyl)oxy]butanoyl}amino)benzoic acid (racemate)]: the results for the IC50 in experiment [1] and in experiment [2] were 1 nM and 6.5 nM, respectively.
Take `COc1cn(C(CCOC(C)C)C(=O)Nc2ccc(C(=O)O)cc2)c(=O)cc1-c1cc(Cl)ccc1C#N` (racemic) [Example 1, 4-({2-[4-(5-Chloro-2-cyanophenyl)-5-methoxy-2-oxopyridin-1(2H)-yl]-4-isopropoxybutanoyl}-amino)benzoic acid (racemate)]: the IC50 in experiment [1] was determined as 1.2 nM; in experiment [2], 5.6 nM.
As to `COc1cn([C@@H](CCOC(C)(C)C)C(=O)Nc2ccc(C(=O)O)cc2)c(=O)cc1-c1cc(Cl)ccc1OC(F)F` (single isomer, unassigned; enantiomer 2) [Example 8], the IC50 in experiment [1] was 1.5 nM; in experiment [2], 29 nM.
